Results taken from ChEMBL document CHEMBL4689842, “EUbOPEN Chemogenomics Library wave 1” (2021).

Columns and labels:
Type in all cases: toxicity, cell-based
HEK-293T = test: Incucyte cell viability with HEK293T; conditions: human, 10 µM, compound concentration 10 uM
Fibroblast = test: Incucyte cell viability with human fibroblast; conditions: 10 µM, compound concentration 10 uM
U2OS = test: Incucyte cell viability with U2OS; conditions: human, 10 µM, compound concentration 10 uM
[1] = 0 h, replicate number 1, timepoint 0 hours
[2] = 6 h, replicate number 1, timepoint 6 hours
[3] = 12 h, replicate number 1, timepoint 12 hours
[4] = 18 h, replicate number 1, timepoint 18 hours
[5] = 24 h, replicate number 1, timepoint 24 hours
[6] = 0 h, replicate number 2, timepoint 0 hours
[7] = 12 h, replicate number 2, timepoint 12 hours
[8] = 6 h, replicate number 2, timepoint 6 hours
[9] = 18 h, replicate number 2, timepoint 18 hours
[10] = 24 h, replicate number 2, timepoint 24 hours
Further: filed as whole numbers so only -1 and 0 and 1 occur.

Row | SMILES | Growth Rate (HEK-293T; [1]) | Growth Rate (HEK-293T; [2]) | Growth Rate (HEK-293T; [3]) | Growth Rate (HEK-293T; [4]) | Growth Rate (HEK-293T; [5]) | Growth Rate (Fibroblast; [1]) | Growth Rate (Fibroblast; [2]) | Growth Rate (Fibroblast; [3]) | Growth Rate (Fibroblast; [4]) | Growth Rate (Fibroblast; [5]) | Growth Rate (U2OS; [6]) | Growth Rate (U2OS; [2]) | Growth Rate (U2OS; [3]) | Growth Rate (U2OS; [7]) | Growth Rate (U2OS; [4]) | Growth Rate (U2OS; [5]) | Growth Rate (HEK-293T; [6]) | Growth Rate (HEK-293T; [8]) | Growth Rate (U2OS; [1]) | Growth Rate (U2OS; [10]) | other results
1 | Cc1cc(NC(=O)Nc2ccc(N(C)C)cc2)c2cc(F)cc(F)c2n1 | 0 | 0 | 0 | 0 | 0 | 1 | 0 | 1 | 1 | 1 | 0 | 0 | 0 | 1 | 0 | 0 |  |  |  |  | 
2 | CNc1nc(-c2ccc3c(N)n[nH]c3c2)cc(N2C[C@@H](C(=O)NC3CCCCC3)CC[C@H]2C)n1 | 0 |  |  |  | 1 | 0 | 1 | 0 | 0 | 0 |  | 1 | 0 | 1 | 0 | 0 | 1 | 0 |  |  | Growth Rate (HEK-293T; [7]): 0; Growth Rate (HEK-293T; [9]): 1; Growth Rate (HEK-293T; [10]): 0
3 | Oc1ccc(-c2nc3cc(O)cc(Br)c3o2)cc1 | 1 | 0 | 0 | 1 | 0 | 0 | 0 |  | 1 | 1 |  |  | 1 | 0 | 1 | 1 | 0 | 1 |  |  | Growth Rate (HEK-293T; [7]): 1; Growth Rate (U2OS; [8]): 0
4 | O=C(O)COc1cccc(CN(Cc2ccc(-n3cccn3)cc2)S(=O)(=O)c2cccnc2)c1 | 0 | 1 | 1 | 1 | 1 | 1 | 0 | 1 | 1 | 1 |  |  | 1 | 0 | 1 | 1 |  |  | 0 | 0 | Growth Rate (U2OS; [8]): 0; Growth Rate (U2OS; [9]): 0
5 | O=C(Nc1cccnc1)c1cc(-c2ccnc(F)c2)ccc1OCc1ccccc1 | 0 |  |  |  | 1 | 0 | 0 | 0 | 0 | 0 | 0 | 1 | 0 |  | 0 | 0 |  | 1 |  | 1 | Growth Rate (HEK-293T; [7]): 1; Growth Rate (HEK-293T; [10]): 0; Growth Rate (Fibroblast; [9]): 1; Growth Rate (Fibroblast; [10]): 1
6 | CCc1cc2c(c(CC)n1)CCC(=O)N2Cc1ccc(-c2ccccc2-c2nnn[nH]2)cc1.Cl | 0 | 1 | 1 | 1 | 1 | 0 | 0 | 0 | 0 | 1 | 0 | 0 | 0 |  | 0 | 0 |  | 0 | 1 | 1 | Growth Rate (HEK-293T; [9]): 0; Growth Rate (Fibroblast; [8]): 1; Growth Rate (Fibroblast; [9]): 1
7 | CNc1nc(Nc2cnn([C@H]3CCN(C4COC4)C[C@@H]3F)c2Cl)ncc1C(F)(F)F | 0 | 0 | 0 | 0 | 0 | 0 |  | 1 | 1 | 0 |  | 0 | 1 |  | 1 | 1 |  |  | 1 | 0 | Growth Rate (Fibroblast; [10]): 1; Growth Rate (U2OS; [9]): 0
8 | COc1ccccc1C(=O)Nc1cc2c(cc1N1CCCC1)n(C)c(=O)n2C | 0 | 0 | 1 | 1 | 1 | 0 | 1 | 1 | 1 | 1 |  |  |  |  |  |  | 1 |  | 0 |  | Growth Rate (Fibroblast; [8]): 0; Growth Rate (Fibroblast; [7]): 0
9 | Cc1cc(C(=O)N2Cc3cnn(C)c3Nc3ccccc32)ccc1CNC(=O)N1CCC[C@H]1C(=S)N1CCCN(C)CC1 | 1 | 0 | 0 | 0 | 0 | 0 | 0 | 1 | 0 | 0 | 0 | 0 | 0 | 1 | 0 | 0 | 0 | 1 |  |  | Growth Rate (HEK-293T; [7]): 1; Growth Rate (Fibroblast; [9]): 1; Growth Rate (U2OS; [9]): 1
10 | Clc1cc2c(NC3CCCC3)nnc(-c3ccncc3)c2cc1Cl | 1 |  | 1 | 1 | 1 | 0 | 0 | 1 | 1 | 1 |  | 0 | 1 |  | 0 | 0 | 0 |  | 1 | 1 | Growth Rate (U2OS; [8]): 1; Growth Rate (U2OS; [9]): 1
11 | O=C(NC[C@H](O)CN1CCc2ccccc2C1)c1ccnc(NC2CCC2)c1 | 1 |  |  |  |  |  | 0 | 0 | 0 | 1 | 0 | 0 | 0 | 1 | 0 | 0 | 0 |  | 1 | 1 | Growth Rate (HEK-293T; [10]): 1; Growth Rate (Fibroblast; [6]): 0; Growth Rate (Fibroblast; [7]): 1; Growth Rate (Fibroblast; [9]): 1; Growth Rate (U2OS; [8]): 1; Growth Rate (U2OS; [9]): 1
